Reference: PubChem BioAssay (NCI)
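Following 48 hours of exposure in 96-well plates, responses at five concentrations were used to interpolate endpoints linearly. TGI denotes the concentration required for complete inhibition of growth.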

Assays:
Test in all cases: NCI tumour cell line growth inhibition, 48 h
OVCAR-8 ovarian = system: OVCAR-8 ovarian
M14 melanoma = system: M14 melanoma
MCF7 breast = system: MCF7 breast
BT-549 breast = system: BT-549 breast
IGROV1 ovarian = system: IGROV1 ovarian
786-0 renal = system: 786-0 renal
MOLT-4 leukemia = system: MOLT-4 leukemia
A498 renal = system: A498 renal
EKVX NSCLC = system: EKVX NSCLC
CCRF-CEM leukemia = system: CCRF-CEM leukemia
RPMI-8226 leukemia = system: RPMI-8226 leukemia
OVCAR-5 ovarian = system: OVCAR-5 ovarian
KM12 colon = system: KM12 colon
NCI-H522 lung = system: NCI-H522 lung
UACC-257 melanoma = system: UACC-257 melanoma
U251 CNS = system: U251 CNS
CAKI-1 renal = system: CAKI-1 renal
MDA-MB-435 = system: MDA-MB-435
HCC-2998 colon = system: HCC-2998 colon
TK-10 renal = system: TK-10 renal
HL-60(TB) leukemia = system: HL-60(TB) leukemia
NCI-H23 lung = system: NCI-H23 lung
NCI/ADR-RES ovarian = system: NCI/ADR-RES ovarian
HOP-92 NSCLC = system: HOP-92 NSCLC
SK-OV-3 ovarian = system: SK-OV-3 ovarian
SK-MEL-28 melanoma = system: SK-MEL-28 melanoma
SF-295 CNS = system: SF-295 CNS
MALME-3M melanoma = system: MALME-3M melanoma
RXF 393 renal = system: RXF 393 renal
COLO 205 colon = system: COLO 205 colon
SR leukemia = system: SR leukemia
LOX IMVI melanoma = system: LOX IMVI melanoma
HCT-116 colon = system: HCT-116 colon
PC-3 prostate = system: PC-3 prostate
OVCAR-4 ovarian = system: OVCAR-4 ovarian
SN12C renal = system: SN12C renal
K-562 leukemia = system: K-562 leukemia
ACHN renal = system: ACHN renal
SW-620 colon = system: SW-620 colon
SNB-75 CNS = system: SNB-75 CNS
SNB-19 CNS = system: SNB-19 CNS
HCT-15 colon = system: HCT-15 colon
NCI-H226 lung = system: NCI-H226 lung
SF-539 CNS = system: SF-539 CNS
A549 NSCLC = system: A549 NSCLC
T-47D breast = system: T-47D breast
UACC-62 melanoma = system: UACC-62 melanoma
MDA-MB-231 breast = system: MDA-MB-231 breast
HOP-62 NSCLC = system: HOP-62 NSCLC
SK-MEL-2 melanoma = system: SK-MEL-2 melanoma
OVCAR-3 ovarian = system: OVCAR-3 ovarian
NCI-H460 lung = system: NCI-H460 lung
UO-31 renal = system: UO-31 renal
HT29 colon = system: HT29 colon
DU-145 prostate = system: DU-145 prostate
SF-268 CNS = system: SF-268 CNS
SK-MEL-5 melanoma = system: SK-MEL-5 melanoma
HS 578T breast = system: HS 578T breast
MDA-N = system: MDA-N

For `O=[N+]([O-])c1ccc(Cl)cc1C=NC12CC3CC(CC(C3)C1)C2`, the TGI (OVCAR-8 ovarian) was > 100 µM, the TGI (M14 melanoma) was > 100 µM and the TGI (MCF7 breast) was > 100 µM. For the same compound, the TGI (BT-549 breast) was > 100 µM, the TGI (IGROV1 ovarian) was > 100 µM and the TGI (786-0 renal) was > 95.2 µM. For the same compound, the TGI (MOLT-4 leukemia) was 63.4 µM, the TGI (A498 renal) was > 100 µM and the TGI (EKVX NSCLC) was > 100 µM. For the same compound, the TGI (CCRF-CEM leukemia) was 35.6 µM, the TGI (RPMI-8226 leukemia) was 57.5 µM and the TGI (OVCAR-5 ovarian) was > 100 µM. The TGI (KM12 colon) was > 91 µM, the TGI (NCI-H522 lung) was > 100 µM and the TGI (UACC-257 melanoma) was > 31.6 µM. The TGI (U251 CNS) was > 100 µM, the TGI (CAKI-1 renal) was > 100 µM and the TGI (MDA-MB-435) was > 100 µM. The TGI (HCC-2998 colon) was > 100 µM, the TGI (TK-10 renal) was > 100 µM and the TGI (HL-60(TB) leukemia) was 15.6 µM. The TGI (NCI-H23 lung) was 98.1 µM, the TGI (NCI/ADR-RES ovarian) was > 86.9 µM and the TGI (HOP-92 NSCLC) was > 100 µM. The TGI (SK-OV-3 ovarian) was > 100 µM, the TGI (SK-MEL-28 melanoma) was > 100 µM and the TGI (SF-295 CNS) was > 100 µM. For the same compound, the TGI (MALME-3M melanoma) was > 94 µM, the TGI (RXF 393 renal) was 97.6 µM and the TGI (COLO 205 colon) was 97.5 µM. For the same compound, the TGI (SR leukemia) was 26.4 µM, the TGI (LOX IMVI melanoma) was > 70.3 µM and the TGI (HCT-116 colon) was 62.9 µM. For the same compound, the TGI (PC-3 prostate) was > 100 µM, the TGI (OVCAR-4 ovarian) was > 100 µM and the TGI (SN12C renal) was > 100 µM. The TGI (K-562 leukemia) was 43 µM, the TGI (ACHN renal) was > 100 µM and the TGI (SW-620 colon) was > 100 µM. For the same compound, the TGI (SNB-75 CNS) was > 100 µM, the TGI (SNB-19 CNS) was > 100 µM and the TGI (HCT-15 colon) was > 100 µM. The TGI (NCI-H226 lung) was > 100 µM, the TGI (SF-539 CNS) was > 86.7 µM and the TGI (A549 NSCLC) was > 100 µM. For the same compound, the TGI (T-47D breast) was > 93.8 µM, the TGI (UACC-62 melanoma) was > 100 µM and the TGI (MDA-MB-231 breast) was > 100 µM. The TGI (HOP-62 NSCLC) was > 100 µM, the TGI (SK-MEL-2 melanoma) was > 100 µM and the TGI (OVCAR-3 ovarian) was > 100 µM. For the same compound, the TGI (NCI-H460 lung) was > 100 µM, the TGI (UO-31 renal) was > 100 µM and the TGI (HT29 colon) was > 79.9 µM. For the same compound, the TGI (DU-145 prostate) was > 100 µM, the TGI (SF-268 CNS) was > 100 µM and the TGI (SK-MEL-5 melanoma) was > 100 µM. For the same compound, the TGI (HS 578T breast) was > 92.6 µM and the TGI (MDA-N) was > 100 µM.
`COc1ccc(C(=O)CC(c2ccc(OC)c(OC)c2)c2c(O)c3ccccc3oc2=O)cc1OC` (stereo not given) was tested, and the TGI (OVCAR-8 ovarian) was > 100 µM, the TGI (M14 melanoma) was > 100 µM and the TGI (MCF7 breast) was > 100 µM. The TGI (BT-549 breast) was > 100 µM, the TGI (IGROV1 ovarian) was > 100 µM and the TGI (786-0 renal) was > 100 µM. The TGI (MOLT-4 leukemia) was > 100 µM, the TGI (EKVX NSCLC) was > 100 µM and the TGI (CCRF-CEM leukemia) was > 100 µM. The TGI (RPMI-8226 leukemia) was > 100 µM, the TGI (OVCAR-5 ovarian) was > 100 µM and the TGI (KM12 colon) was > 100 µM. The TGI (NCI-H522 lung) was > 100 µM, the TGI (UACC-257 melanoma) was > 100 µM and the TGI (U251 CNS) was > 100 µM. For the same compound, the TGI (CAKI-1 renal) was > 100 µM, the TGI (MDA-MB-435) was > 100 µM and the TGI (HCC-2998 colon) was > 100 µM. For the same compound, the TGI (TK-10 renal) was > 100 µM, the TGI (HL-60(TB) leukemia) was > 100 µM and the TGI (NCI-H23 lung) was > 100 µM. The TGI (NCI/ADR-RES ovarian) was > 100 µM, the TGI (HOP-92 NSCLC) was > 100 µM and the TGI (SK-OV-3 ovarian) was > 100 µM. The TGI (SK-MEL-28 melanoma) was > 100 µM, the TGI (SF-295 CNS) was > 100 µM and the TGI (MALME-3M melanoma) was > 100 µM. The TGI (RXF 393 renal) was > 100 µM, the TGI (COLO 205 colon) was > 100 µM and the TGI (SR leukemia) was > 100 µM. The TGI (LOX IMVI melanoma) was > 100 µM, the TGI (HCT-116 colon) was > 100 µM and the TGI (PC-3 prostate) was > 100 µM. The TGI (OVCAR-4 ovarian) was > 100 µM, the TGI (SN12C renal) was > 100 µM and the TGI (K-562 leukemia) was > 100 µM. For the same compound, the TGI (ACHN renal) was > 100 µM, the TGI (SW-620 colon) was > 100 µM and the TGI (SNB-75 CNS) was > 100 µM. The TGI (SNB-19 CNS) was > 100 µM, the TGI (HCT-15 colon) was > 100 µM and the TGI (NCI-H226 lung) was > 100 µM. For the same compound, the TGI (SF-539 CNS) was > 100 µM, the TGI (A549 NSCLC) was > 100 µM and the TGI (T-47D breast) was > 100 µM. For the same compound, the TGI (UACC-62 melanoma) was > 100 µM, the TGI (MDA-MB-231 breast) was > 100 µM and the TGI (HOP-62 NSCLC) was > 100 µM. The TGI (SK-MEL-2 melanoma) was > 100 µM, the TGI (OVCAR-3 ovarian) was > 100 µM and the TGI (NCI-H460 lung) was > 100 µM. The TGI (UO-31 renal) was > 100 µM, the TGI (HT29 colon) was > 100 µM and the TGI (DU-145 prostate) was > 100 µM. For the same compound, the TGI (SF-268 CNS) was > 100 µM, the TGI (SK-MEL-5 melanoma) was > 100 µM and the TGI (HS 578T breast) was > 100 µM. For the same compound, the TGI (MDA-N) was > 100 µM.
In the case of `CC(C)C(C/C=C1\CC(CO)(COC(=O)CC(C(C)C)C(C)C)OC1=O)C(C)C` (stereo not given), the TGI (OVCAR-8 ovarian) is reported as 33 µM, the TGI (M14 melanoma) is reported as 24.6 µM and the TGI (MCF7 breast) is reported as 31.3 µM. It also gave a TGI (BT-549 breast) of 27.8 µM, a TGI (IGROV1 ovarian) of 28.1 µM and a TGI (786-0 renal) of 21.1 µM. It also gave a TGI (MOLT-4 leukemia) of 21.4 µM, a TGI (A498 renal) of 25.5 µM and a TGI (EKVX NSCLC) of 23.5 µM. The TGI (CCRF-CEM leukemia) was 36.2 µM, the TGI (OVCAR-5 ovarian) was 26.9 µM and the TGI (KM12 colon) was 28.6 µM. For the same compound, the TGI (NCI-H522 lung) was 27.6 µM, the TGI (UACC-257 melanoma) was 29.5 µM and the TGI (U251 CNS) was 29.4 µM. For the same compound, the TGI (CAKI-1 renal) was 20.3 µM, the TGI (MDA-MB-435) was 19.7 µM and the TGI (HCC-2998 colon) was 18.7 µM. The TGI (TK-10 renal) was 21.8 µM, the TGI (HL-60(TB) leukemia) was 18.8 µM and the TGI (NCI-H23 lung) was 29 µM. It also gave a TGI (NCI/ADR-RES ovarian) of 31.8 µM, a TGI (HOP-92 NSCLC) of 16.6 µM and a TGI (SK-OV-3 ovarian) of 32.1 µM. The TGI (SK-MEL-28 melanoma) was 29.3 µM, the TGI (SF-295 CNS) was 20.2 µM and the TGI (MALME-3M melanoma) was 14.5 µM. It also gave a TGI (RXF 393 renal) of 28.4 µM, a TGI (COLO 205 colon) of 9.75 µM and a TGI (SR leukemia) of 31.6 µM. For the same compound, the TGI (LOX IMVI melanoma) was 27.3 µM, the TGI (HCT-116 colon) was 27.8 µM and the TGI (PC-3 prostate) was 24.6 µM. The TGI (OVCAR-4 ovarian) was 33 µM, the TGI (SN12C renal) was 22.1 µM and the TGI (K-562 leukemia) was 19.6 µM. For the same compound, the TGI (ACHN renal) was 22.5 µM, the TGI (SW-620 colon) was 21.6 µM and the TGI (SNB-75 CNS) was 22.9 µM. The TGI (SNB-19 CNS) was 26.5 µM, the TGI (HCT-15 colon) was 34.9 µM and the TGI (NCI-H226 lung) was 24.4 µM. For the same compound, the TGI (SF-539 CNS) was 33 µM, the TGI (A549 NSCLC) was 18.8 µM and the TGI (T-47D breast) was 30.7 µM. For the same compound, the TGI (UACC-62 melanoma) was 29 µM, the TGI (MDA-MB-231 breast) was 27.2 µM and the TGI (HOP-62 NSCLC) was 20.5 µM. For the same compound, the TGI (SK-MEL-2 melanoma) was 38.2 µM, the TGI (OVCAR-3 ovarian) was 30.6 µM and the TGI (NCI-H460 lung) was 21.7 µM. For the same compound, the TGI (UO-31 renal) was 20 µM, the TGI (HT29 colon) was 32.6 µM and the TGI (DU-145 prostate) was 22 µM. The TGI (SF-268 CNS) was 27.6 µM, the TGI (SK-MEL-5 melanoma) was 23 µM and the TGI (HS 578T breast) was 15.8 µM. For the same compound, the TGI (MDA-N) was 18 µM.
